Data on ten molecules can be found in patent US7211587B2, “Quinoline derivatives and quinazoline derivatives having azolyl group” (Kirin Beer Kabushiki Kaisha, priority 2001, dated 2007).

For orientation: IC50 means the concentration needed to halve the response being measured.

One assay addresses T1, human KDR (Homo sapiens, UniProt P35968).
T1 construct: expressed in transfected cells; host or cells: NIH 3T3 cells (mouse fibroblasts) stably expressing human KDR
The assay can be described thus: Inhibitory activity against KDR phosphorylation by ELISA (VEGF-stimulated NIH 3T3 cells expressing human KDR). In kind it is cell-based. The following applies: VEGF 100 ng/ml, compound 1 hr, read-out: IC50 (inhibition of KDR phosphorylation).

Assay [1] deals with Human pulmonary carcinoma cells (LC-6). The assay can be described thus: Antitumor activity against human pulmonary carcinoma cells (LC-6) using nude rats. In kind it is in vivo. The following applies: LC-6 in nude rats. Here is the method: (§1) Human pulmonary carcinoma cells (LC-6) (obtained from Central Laboratories for Experimental Animals) were transplanted into nude rats. When the tumor volume became about 700 mm^3, the rats were grouped so that each group consisted of four rats and the average tumor volume was even among the groups. A test compound was orally administered at doses of 0.2, 0.5, 1.0, and 5.0 mg/kg to the test groups every day once a day for 14 days, while only a vehicle was administered to a control group in the manner as in the test groups. The tumor growth inhibition rate (TGIR) was calculated as follows: The tumor growth inhibition rate (TGIR)=(1−TX/CX)×100 wherein CX represents the volume of tumor at day X for the control group when the tumor volume at the first day of the administration was presumed to be 1; and TX represents the tumor volume for test compound administration groups.

Assay [2] shares this test system. Description: Antitumor activity against human pulmonary carcinoma cells (LC-6) transplanted into nude mice. In kind it is in vivo. The following applies: Mus musculus, 216 h; LC-6 in nude mice, oral 20 mg/kg once a day for 9 days; read-out: TGIR (tumor growth inhibition rate). The procedure: as §1, with “mice.” for “rats.”, “100” for “700”, “mice” for “rats”, “a dose” for “doses”, “20” for “0.2, 0.5, 1.0, and 5.0”, “9” for “14”

Assay [3] has as its system Human colon carcinoma cells (LS174T). The assay can be described thus: Antitumor activity against human colon carcinoma cells (LS174T) using nude mice. In kind it is in vivo. Particulars: LS174T (printed LS17) in nude mice, oral 5 mg/kg once a day for 9 days. The procedure:
(§2) Human colon carcinoma cells (LS174T) (obtained from American Type Culture Collection) or human pulmonary carcinoma cells (A549) (obtained from RIKEN Cell Bank) were transplanted into nude mice. When the tumor volume became about 150 mm^3, the mice were grouped so that each group consisted of four mice and the average tumor volume was even among the groups. A test compound was orally administered at doses of 5 and 20 mg/kg to the test groups every day once a day for 9 days, while only a vehicle was administered to a control group in the manner as in the test groups. The tumor growth inhibition rate (TGIR) was calculated as follows: The tumor growth inhibition rate (TGIR)=(1−TX/CX)×100 wherein CX represents the volume of tumor at day X for the control group when the tumor volume at the first day of the administration was presumed to be 1; and TX represents the tumor volume for test compound administration groups.

The subject of assay [4] is human pulmonary carcinoma cells (A549). The assay can be described thus: Antitumor activity against human pulmonary carcinoma cells (A549) using nude mice. Format: in vivo. The following applies: A549 in nude mice, oral 20 mg/kg once a day for 9 days. Here is the method: as §2
[5] abbreviates: oral 5 mg/kg once a day for 14 days.

T1 sequence (P35968 20-1356): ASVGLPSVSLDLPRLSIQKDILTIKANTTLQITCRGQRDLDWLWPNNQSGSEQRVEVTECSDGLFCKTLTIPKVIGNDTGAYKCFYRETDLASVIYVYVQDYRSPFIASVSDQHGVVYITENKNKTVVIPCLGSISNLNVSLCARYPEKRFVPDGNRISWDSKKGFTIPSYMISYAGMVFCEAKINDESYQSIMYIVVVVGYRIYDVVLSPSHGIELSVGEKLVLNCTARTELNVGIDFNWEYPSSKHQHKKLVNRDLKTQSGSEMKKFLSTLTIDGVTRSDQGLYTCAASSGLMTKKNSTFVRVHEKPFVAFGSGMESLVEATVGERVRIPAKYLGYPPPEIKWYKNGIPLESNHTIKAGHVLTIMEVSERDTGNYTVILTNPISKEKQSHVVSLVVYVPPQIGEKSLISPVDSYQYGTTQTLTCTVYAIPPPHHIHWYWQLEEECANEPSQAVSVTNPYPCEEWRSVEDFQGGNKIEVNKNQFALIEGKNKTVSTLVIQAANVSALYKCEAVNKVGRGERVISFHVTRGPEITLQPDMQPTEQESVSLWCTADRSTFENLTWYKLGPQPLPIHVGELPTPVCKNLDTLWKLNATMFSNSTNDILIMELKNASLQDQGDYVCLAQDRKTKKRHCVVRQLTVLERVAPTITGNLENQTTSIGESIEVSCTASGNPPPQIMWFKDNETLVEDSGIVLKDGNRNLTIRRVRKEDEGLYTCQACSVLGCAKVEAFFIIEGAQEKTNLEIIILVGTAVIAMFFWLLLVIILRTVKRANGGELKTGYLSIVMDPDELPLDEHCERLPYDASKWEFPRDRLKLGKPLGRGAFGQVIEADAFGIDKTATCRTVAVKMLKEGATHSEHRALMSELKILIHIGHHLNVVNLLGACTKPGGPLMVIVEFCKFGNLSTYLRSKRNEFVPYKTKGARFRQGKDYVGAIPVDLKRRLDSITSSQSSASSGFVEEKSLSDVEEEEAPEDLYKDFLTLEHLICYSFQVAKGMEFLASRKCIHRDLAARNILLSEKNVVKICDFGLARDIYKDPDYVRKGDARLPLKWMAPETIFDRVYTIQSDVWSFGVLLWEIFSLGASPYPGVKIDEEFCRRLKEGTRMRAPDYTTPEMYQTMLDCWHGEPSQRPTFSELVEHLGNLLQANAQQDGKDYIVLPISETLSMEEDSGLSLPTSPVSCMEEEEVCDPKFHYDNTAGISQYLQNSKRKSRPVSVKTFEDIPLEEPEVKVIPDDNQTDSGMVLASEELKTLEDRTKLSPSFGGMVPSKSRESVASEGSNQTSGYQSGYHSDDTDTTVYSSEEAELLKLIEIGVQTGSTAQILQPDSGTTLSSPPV

Take `COc1cc2nccc(Oc3ccc(NC(=O)Nc4nccs4)c(F)c3)c2cc1OC.Cl` [Ex. 27, N-{4-[(6,7-Dimethoxy-4-quinolyl)oxy]-2-fluorophenyl}-N′-(1,3-thiazol-2-yl)urea hydrochloride]: the IC50 on human KDR was 0.3 nM. Besides, the “TGIR (tumor growth inhibition rate)” value in assay [1] (setting [5]) is 82%.
As for `COc1cc2ncnc(Oc3ccc(NC(=O)Nc4nccs4)c(Cl)c3)c2cc1OC` [Ex. 38, N-{2-Chloro-4-[(6,7-dimethoxy-4-quinazolinyl)oxy]phenyl}-N′-(1,3-thiazol-2-yl)urea], the IC50 at human KDR was below 1 nM. Also, the inhibition in vivo at 20 mg/kg in assay [2] turned out to be 92%. Also, in assay [1] (setting [5]), the “TGIR (tumor growth inhibition rate)” value turned out to be 78%.
For `COc1cc2nccc(Oc3ccc(NC(=O)Nc4nc(C)cs4)c(F)c3)c2cc1OC.Cl` [Ex. 28, N-{4-[(6,7-Dimethoxy-4-quinolyl)oxy]-2-fluorophenyl}-N′-(4-methyl-1,3-thiazol-2-yl)urea hydrochloride] the same measures were 0.3 nM, 66.3% and 59%.
On to `COc1cc2nccc(Oc3ccc(NC(=O)Nc4cc(C)on4)c(Cl)c3)c2cc1OC` [Ex. 4, N-{2-Chloro-4-[(6,7-dimethoxy-4-quinolyl)oxy]phenyl}-N′-(5-methyl-3-isoxazolyl)urea], for which the inhibition in vivo at 20 mg/kg in assay [2] turned out to be 55.4%. Moreover, the “TGIR (tumor growth inhibition rate)” value in assay [1] (oral 0.2 mg/kg once a day for 14 days) came to 62%; in assay [1] (oral 0.5 mg/kg once a day for 14 days), 80%; in assay [1] (oral 1 mg/kg once a day for 14 days), 88%; in assay [3], 65%; in assay [4], 65%.
`COc1cc2nccc(Oc3ccc(NC(=O)Nc4nc(C)c(C)s4)c(F)c3)c2cc1OC` [Ex. 23, N-{4-[(6,7-Dimethoxy-4-quinolyl)oxy]-2-fluorophenyl}-N′-(4,5-dimethyl-1,3-thiazol-2-yl)urea]: the IC50 on human KDR was below 1 nM. For the same molecule, the inhibition in vivo at 20 mg/kg in assay [2] amounted to 51.7%.
In the case of `COc1cc2nccc(Oc3ccc(NC(=O)Nc4nnc(C(F)(F)F)s4)cc3)c2cc1OC` [Ex. 50, N-{4-[(6,7-Dimethoxy-4-quinolyl)oxy]phenyl}-N′-[5-(trifluoromethyl)-1,3,4-thiadiazol-2-yl]urea], the IC50 on human KDR is 6.3 nM. Moreover, in assay [2], the inhibition in vivo at 20 mg/kg was found to be 11.9%.
For `COc1cc2nccc(Oc3ccc(NC(=O)Nc4nnc(C)s4)c(F)c3)c2cc1OC` [Ex. 58, N-{4-[(6,7-Dimethoxy-4-quinolyl)oxy]-2-fluorophenyl}-N′-(5-methyl-1,3,4-thiadiazol-2-yl)urea] the same measures were 36 nM and 13.4%.
In the case of `COc1cc2ncnc(Oc3ccc(NC(=O)Nc4nc(C)c(C)s4)c(Cl)c3)c2cc1OC` [Ex. 40, N-{2-Chloro-4-[(6,7-dimethoxy-4-quinazolinyl)oxy]phenyl}-N′-(4,5-dimethyl-1,3-thiazol-2-yl)urea], the IC50 at human KDR is below 1 nM. Besides, in assay [2], the inhibition in vivo at 20 mg/kg came out at 34.2%.
In the case of `COc1cc2nccc(Oc3cc(C)c(NC(=O)Nc4nnc(C5CC5)s4)cc3C)c2cc1OC` [Ex. 69, N-(5-Cyclopropyl-1,3,4-thiadiazol-2-yl)-N′-{4-[(6,7-dimethoxy-4-quinolyl)oxy]-2,5-dimethylphenyl}-urea], at human KDR, the IC50 amounted to 4.1 nM. In assay [2], the inhibition in vivo at 20 mg/kg was found to be 23.3%.
Regarding `CCOC(=O)Cc1csc(NC(=O)Nc2ccc(Oc3ccnc4cc(OC)c(OC)cc34)cc2F)n1` [Ex. 29, Ethyl 2-{2-[({4-[(6,7-dimethoxy-4-quinolyl)oxy]-2-fluoroanilino}carbonyl)amino]-1,3-thiazol-4-yl}acetate], the IC50 at human KDR was found to be 49.4 nM. Also, the inhibition in vivo at 20 mg/kg in assay [2] was 66.1%.
